PubChem BioAssay (NCI)
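Protocol summary: plate cells (96-well), add compound at 5 concentrations, incubate 48 h, interpolate endpoints linearly. Definition used: TGI = concentration required for complete inhibition of growth.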

Experiments:
Assay in all cases: NCI anticancer screen, dose series, 48 h
UACC-257 melanoma = system: UACC-257 melanoma
CAKI-1 renal = system: CAKI-1 renal
SF-268 CNS = system: SF-268 CNS
MOLT-4 leukemia = system: MOLT-4 leukemia
TK-10 renal = system: TK-10 renal
SF-539 CNS = system: SF-539 CNS
SK-MEL-28 melanoma = system: SK-MEL-28 melanoma
CCRF-CEM leukemia = system: CCRF-CEM leukemia
MCF7 breast = system: MCF7 breast
SN12C renal = system: SN12C renal
MDA-N = system: MDA-N
A549 NSCLC = system: A549 NSCLC
HOP-62 NSCLC = system: HOP-62 NSCLC
SF-295 CNS = system: SF-295 CNS
SK-MEL-5 melanoma = system: SK-MEL-5 melanoma
U251 CNS = system: U251 CNS
UO-31 renal = system: UO-31 renal
OVCAR-3 ovarian = system: OVCAR-3 ovarian
COLO 205 colon = system: COLO 205 colon
MALME-3M melanoma = system: MALME-3M melanoma
MDA-MB-231 breast = system: MDA-MB-231 breast
DU-145 prostate = system: DU-145 prostate
SW-620 colon = system: SW-620 colon
IGROV1 ovarian = system: IGROV1 ovarian
NCI-H226 lung = system: NCI-H226 lung
KM12 colon = system: KM12 colon
HOP-92 NSCLC = system: HOP-92 NSCLC
NCI/ADR-RES ovarian = system: NCI/ADR-RES ovarian
HCT-15 colon = system: HCT-15 colon
786-0 renal = system: 786-0 renal
MDA-MB-435 = system: MDA-MB-435
PC-3 prostate = system: PC-3 prostate
OVCAR-5 ovarian = system: OVCAR-5 ovarian
EKVX NSCLC = system: EKVX NSCLC
SK-OV-3 ovarian = system: SK-OV-3 ovarian
T-47D breast = system: T-47D breast
RXF 393 renal = system: RXF 393 renal
ACHN renal = system: ACHN renal
SNB-75 CNS = system: SNB-75 CNS
HT29 colon = system: HT29 colon
SK-MEL-2 melanoma = system: SK-MEL-2 melanoma
OVCAR-8 ovarian = system: OVCAR-8 ovarian
NCI-H23 lung = system: NCI-H23 lung
OVCAR-4 ovarian = system: OVCAR-4 ovarian
HS 578T breast = system: HS 578T breast
LOX IMVI melanoma = system: LOX IMVI melanoma
NCI-H460 lung = system: NCI-H460 lung
M14 melanoma = system: M14 melanoma
K-562 leukemia = system: K-562 leukemia
SNB-19 CNS = system: SNB-19 CNS
HCT-116 colon = system: HCT-116 colon
NCI-H522 lung = system: NCI-H522 lung
A498 renal = system: A498 renal
HCC-2998 colon = system: HCC-2998 colon
RPMI-8226 leukemia = system: RPMI-8226 leukemia
HL-60(TB) leukemia = system: HL-60(TB) leukemia
UACC-62 melanoma = system: UACC-62 melanoma
SR leukemia = system: SR leukemia

For `C#CCn1c(=O)c2cc(OC)c(OC)cc2n(CC#C)c1=O`, the TGI (UACC-257 melanoma) was over 10 µM, the TGI (CAKI-1 renal) was over 10 µM and the TGI (SF-268 CNS) was over 10 µM. The TGI (MOLT-4 leukemia) was over 10 µM, the TGI (TK-10 renal) was over 10 µM and the TGI (SF-539 CNS) was over 10 µM. The TGI (SK-MEL-28 melanoma) was over 10 µM, the TGI (CCRF-CEM leukemia) was over 10 µM and the TGI (MCF7 breast) was over 10 µM. For the same compound, the TGI (SN12C renal) was over 10 µM, the TGI (MDA-N) was over 10 µM and the TGI (A549 NSCLC) was over 10 µM. The TGI (HOP-62 NSCLC) was over 10 µM, the TGI (SF-295 CNS) was over 10 µM and the TGI (SK-MEL-5 melanoma) was over 10 µM. It also gave a TGI (U251 CNS) of over 10 µM, a TGI (UO-31 renal) of over 10 µM and a TGI (OVCAR-3 ovarian) of over 10 µM. For the same compound, the TGI (COLO 205 colon) was over 10 µM, the TGI (MALME-3M melanoma) was over 10 µM and the TGI (MDA-MB-231 breast) was over 10 µM. For the same compound, the TGI (DU-145 prostate) was over 10 µM, the TGI (SW-620 colon) was over 10 µM and the TGI (IGROV1 ovarian) was over 10 µM. For the same compound, the TGI (NCI-H226 lung) was over 10 µM, the TGI (KM12 colon) was over 10 µM and the TGI (HOP-92 NSCLC) was over 10 µM. For the same compound, the TGI (NCI/ADR-RES ovarian) was over 10 µM, the TGI (HCT-15 colon) was over 10 µM and the TGI (786-0 renal) was over 10 µM. It also gave a TGI (MDA-MB-435) of over 10 µM, a TGI (PC-3 prostate) of over 10 µM and a TGI (OVCAR-5 ovarian) of over 10 µM. The TGI (EKVX NSCLC) was over 10 µM, the TGI (SK-OV-3 ovarian) was over 10 µM and the TGI (T-47D breast) was over 10 µM. The TGI (RXF 393 renal) was over 10 µM, the TGI (ACHN renal) was over 10 µM and the TGI (SNB-75 CNS) was over 10 µM. It also gave a TGI (HT29 colon) of over 10 µM, a TGI (SK-MEL-2 melanoma) of over 10 µM and a TGI (OVCAR-8 ovarian) of over 10 µM. The TGI (NCI-H23 lung) was over 10 µM, the TGI (OVCAR-4 ovarian) was over 10 µM and the TGI (HS 578T breast) was over 10 µM. The TGI (LOX IMVI melanoma) was over 10 µM, the TGI (NCI-H460 lung) was over 10 µM and the TGI (M14 melanoma) was over 10 µM. The TGI (K-562 leukemia) was over 10 µM, the TGI (SNB-19 CNS) was over 10 µM and the TGI (HCT-116 colon) was over 10 µM. The TGI (NCI-H522 lung) was over 10 µM, the TGI (A498 renal) was over 10 µM and the TGI (HCC-2998 colon) was over 10 µM. It also gave a TGI (RPMI-8226 leukemia) of over 10 µM.

Work on `Cn1c(=Nc2ccccc2[N+](=O)[O-])sc2ccccc21` yielded a TGI (HL-60(TB) leukemia) of over 100 µM, a TGI (UACC-257 melanoma) of over 100 µM and a TGI (CAKI-1 renal) of over 100 µM. It also gave a TGI (SF-268 CNS) of over 100 µM, a TGI (MOLT-4 leukemia) of over 100 µM and a TGI (TK-10 renal) of 45.2 µM. For the same compound, the TGI (SF-539 CNS) was over 100 µM, the TGI (SK-MEL-28 melanoma) was over 100 µM and the TGI (CCRF-CEM leukemia) was over 100 µM. For the same compound, the TGI (SN12C renal) was over 100 µM, the TGI (MDA-N) was over 100 µM and the TGI (A549 NSCLC) was over 100 µM. The TGI (HOP-62 NSCLC) was 48.3 µM, the TGI (SF-295 CNS) was over 100 µM and the TGI (SK-MEL-5 melanoma) was over 100 µM. For the same compound, the TGI (U251 CNS) was over 100 µM, the TGI (UACC-62 melanoma) was over 100 µM and the TGI (SR leukemia) was over 100 µM. It also gave a TGI (UO-31 renal) of over 100 µM, a TGI (COLO 205 colon) of over 100 µM and a TGI (MALME-3M melanoma) of over 100 µM. The TGI (MDA-MB-231 breast) was over 100 µM, the TGI (DU-145 prostate) was over 100 µM and the TGI (SW-620 colon) was over 100 µM. For the same compound, the TGI (IGROV1 ovarian) was over 100 µM, the TGI (NCI-H226 lung) was over 100 µM and the TGI (KM12 colon) was 15.5 µM. It also gave a TGI (HOP-92 NSCLC) of 61.7 µM, a TGI (NCI/ADR-RES ovarian) of over 100 µM and a TGI (HCT-15 colon) of over 100 µM. The TGI (786-0 renal) was over 100 µM, the TGI (MDA-MB-435) was over 100 µM and the TGI (PC-3 prostate) was over 100 µM. It also gave a TGI (OVCAR-5 ovarian) of over 100 µM, a TGI (EKVX NSCLC) of over 100 µM and a TGI (SK-OV-3 ovarian) of 97.2 µM. For the same compound, the TGI (T-47D breast) was over 100 µM, the TGI (RXF 393 renal) was over 100 µM and the TGI (ACHN renal) was over 100 µM. For the same compound, the TGI (SNB-75 CNS) was 89 µM, the TGI (HT29 colon) was over 100 µM and the TGI (SK-MEL-2 melanoma) was over 100 µM. It also gave a TGI (OVCAR-8 ovarian) of over 100 µM, a TGI (NCI-H23 lung) of over 100 µM and a TGI (OVCAR-4 ovarian) of 86.9 µM. For the same compound, the TGI (HS 578T breast) was over 100 µM, the TGI (LOX IMVI melanoma) was over 100 µM and the TGI (NCI-H460 lung) was over 100 µM. It also gave a TGI (K-562 leukemia) of over 100 µM, a TGI (SNB-19 CNS) of over 100 µM and a TGI (HCT-116 colon) of over 100 µM. The TGI (NCI-H522 lung) was over 100 µM, the TGI (A498 renal) was over 100 µM and the TGI (HCC-2998 colon) was over 100 µM. For the same compound, the TGI (RPMI-8226 leukemia) was over 100 µM.
